The values that follow are results of earlier work, collected in patent publication US20070238698A1, “Method for manufacturing drinking water having chitosan” (Hsien-Chih Lin, priority 2006, published 2007).

Holding throughout (settings): added to drinking water; experiments to animals
One series has as its system inoculated tumors.
The subject of series [1] is huge corrosion cell having ability of immunity.
The subject of a further series is enteric microflora.

For the substance chitosan oligosaccharide, in the series on inoculated tumors, the “effect on inoculated tumors” value is “reduced the inoculated tumors”. Moreover, the “effect on huge corrosion cell having ability of immunity” value in series [1] is “increase the huge corrosion cell having ability of immunity”. For the same substance, the “effect on enteric microflora of animals” value in the series with enteric microflora is reported as “improve the enteric microflora of animals”.
